Key:
Assay type in all cases: biochemical
cathepsin B = biological target: T1, cathepsin B (Homo sapiens, UniProt P07858); test: Cathepsin B enzyme inhibition in vitro (kinetic fluorescence assay); details: cathepsin B isolated from human liver vs calpain I
T1 construct: cathepsin B—isolated from human liver (Calbiochem #219362); purchased Calbiochem 219362; host or cells: human liver (tissue-derived)
Description: (§1) The following solutions and buffers were employed: • HBS (for 40 ml): 800 μl M HEPES; 2.16 ml 100 mM KCl; 4.8 ml 1M NaCl; 3.59 ml 5% glucose; 60 μl μM MgSO4; 400 μl 100 mM Na pyruvate, 28.19 ml water; pH 7.2-7.5. • lysis buffer (for 20 ml): 400 μl M Tris pH 8.2; 2.74 ml 1M NaCl; 520 μl 0.5M EDTA; 2 ml 10% triton X-100; 0.8 ml (=1:25) CompletePlus (1 tablet/2 ml H2O); 200 μl 100 mM Pefabloc; 13.34 ml water, pH 8.2. • TBST (10×) (for 1 l): 100 mM Tris (12.1 g); 1.5M NaCl (87 g); 1% Tween 20 (10 g), adjusted to pH 8. I Enzyme Inhibition In Vitro: • Testing for blockade of the corresponding enzymic activities was carried out by means of kinetic fluorescence assays (excitation 390 nm, emission 460 nm). • Apparent Ki values were calculated from the experimentally determined IC50 values by the Cheng-Prussoff relation assuming a reversible competitive enzyme inhibition. The Km values of the substrates used under the assay conditions indicated above were: 90 μM (Z-Phe-Arg-AMC, cathepsin B), 10 μM (Z-Gly-Pro-Arg-AMC, cathepsin K), 2 μM (Z-Phe-Arg-AMC, cathepsin L), and 30 μM (Z-Val-Val-Arg-AMC, cathepsin S). • The indicated Ki values are averages of the inhibition constants calculated on the basis of 2 to 4 independent dose-effect plots.
(§2) The following assays were used: • 1. Calpain I: • 20 nM calpain-I—isolated from human erythrocytes (Calbiochem #208713), 100 μM Suc-Leu-Tyr-AMC (Bachem #1-1355) as substrate in buffer with 62 mM imidazole, 0.3 mM CaCl2, 0.10% CHAPS, 0.05% BSA, 1 mM DTT at pH 7.3 and room temperature. • 2. Cathepsin B: • 0.25 nM cathepsin B—isolated from human liver (Calbiochem #219362), 100 μM Z-Phe-Arg-AMC (Bachem #I-1160) as substrate 50 mM MES, 2 mM EDTA, 0.05% Brij 35, 2.5 mM L-cysteine, pH 6.0, room temperature. • 3. Cathepsin K: • 3 nM cathepsin K—activated from recombinant human procathepsin K from E. coli (Calbiochem #342001), 10 μM Z-Gly-Pro-Arg-AMC (Biomol #P-142) as substrate in 50 mM MES, 2 mM EDTA, 0.05% Brij 35, 2.5 mM L-cysteine, pH 6.0, room temperature. • 4. Cathepsin L: • 1 nM cathepsin L—isolated from human liver (Calbiochem #219402), 2 μM Z-Phe-Arg-AMC (Bachem #1-1160) as substrate in 50 mM MES, 2 mM EDTA, 0.05% Brij 35, 2.5 mM L-cysteine, pH 6.0, room temperature. • 5. Cathepsin S: • 0.5 nM recombinant human cathepsin S from E. coli (Calbiochem #219343), 20 μM Z-Val-Val-Arg-AMC (Bachem #1-1540) as substrate in 50 mM MES, 2 mM EDTA, 0.05% Brij 35, 2.5 mM L-cysteine, pH 6.0, room temperature. • The results of the in vitro determination are indicated in Table 1. The following abbreviations are used in Table 1: • The “Calpain activity” column, ++ stands for a calpain Ki (Ki(calpain)) of ≦40 nM and + means: 40 nM<Ki(Calpain)≦100 nM. • The “Sel. cat. B” column indicates the Ki(cathepsin B)/Ki(calpain) ratio. In this connection, ++ means a Ki(cathepsin B)/Ki(calpain) ratio of ≧30 and + means 10≦Ki(cathepsin B)/Ki(calpain)<30. • The “Sel. cat. K” column indicates the Ki(cathepsin K)/Ki(calpain) ratio. In this connection, ++ means a Ki(cathepsin K)/Ki(calpain) ratio of ≧30 and + means 10≦Ki(cathepsin K)/Ki(calpain)<30. • The “Sel. cat. L” column indicates the Ki(cathepsin L)/Ki(calpain) ratio. In this connection, ++ means a Ki(cathepsin L)/Ki(calpain) ratio of ≧50 and + means 30≦Ki(cathepsin L)/Ki(calpain)<50. • The “Sel. cat. S” column indicates the Ki(cathepsin S)/Ki(calpain) ratio. In this connection, ++ means a Ki(cathepsin S)/Ki(calpain) ratio of ≧100 and + means 50≦Ki(cathepsin S)/Ki(calpain)<100.

cathepsin S = biological target: T2, cathepsin S (Homo sapiens, UniProt P25774); test: Cathepsin S enzyme inhibition in vitro (kinetic fluorescence assay); details: recombinant human cathepsin S vs calpain I
T2 construct: purchased Calbiochem 219343; host or cells: E. coli
T2 sequence (P25774 115-331): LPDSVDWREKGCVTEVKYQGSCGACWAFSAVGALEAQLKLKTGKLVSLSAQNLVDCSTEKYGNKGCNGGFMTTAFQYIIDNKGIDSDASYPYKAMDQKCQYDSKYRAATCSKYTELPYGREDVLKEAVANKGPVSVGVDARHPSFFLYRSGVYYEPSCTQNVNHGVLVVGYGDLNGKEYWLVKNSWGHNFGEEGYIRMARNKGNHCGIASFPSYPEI
Description: as §1, §2

cathepsin L = biological target: T3, cathepsin L (Homo sapiens, UniProt P07711); test: Cathepsin L enzyme inhibition in vitro (kinetic fluorescence assay); details: cathepsin L isolated from human liver vs calpain I
T3 construct: cathepsin L—isolated from human liver (Calbiochem #219402); purchased Calbiochem 219402; host or cells: human liver (tissue-derived)
T3 sequence (P07711 114-333): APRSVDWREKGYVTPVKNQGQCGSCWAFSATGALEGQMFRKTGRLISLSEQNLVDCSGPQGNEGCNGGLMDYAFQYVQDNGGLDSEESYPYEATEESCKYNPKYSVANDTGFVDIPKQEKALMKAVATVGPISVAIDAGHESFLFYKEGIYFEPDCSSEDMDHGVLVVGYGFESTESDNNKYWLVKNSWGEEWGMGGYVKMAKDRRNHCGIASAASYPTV
Description: as §1, §2

Molecule | Sel cat. B: Ki(cathepsin B)/Ki(calpain) ratio (cathepsin B) | Sel cat. S: Ki(cathepsin S)/Ki(calpain) ratio (cathepsin S) | Sel cat. L: Ki(cathepsin L)/Ki(calpain) ratio (cathepsin L)
CCCCC(NC(=O)c1cc(Cl)cnc1-n1ccc(-c2ccccc2)n1)C(=O)C(N)=O (stereo not shown) [Example 28, N-{1-[Amino(oxo)acetyl]pentyl}-5-chloro-2-(3-phenyl-1H-pyrazol-1-yl)nicotinamide] | + (+ means 10≦Ki(cathepsin B)/Ki(calpain)<30) |  | 
CC(C)CC(NC(=O)c1cc(Cl)cnc1-n1ccc(-c2ccccc2)n1)C(=O)C(N)=O (stereo not shown) [Example 32, N-{1-[Amino(oxo)acetyl]-3-methylbutyl}-5-chloro-2-(3-phenyl-1H-pyrazol-1-yl)nicotinamide] | + (+ means 10≦Ki(cathepsin B)/Ki(calpain)<30) |  | 
CCCCC(NC(=O)c1cccnc1-n1ccc(-c2ccc(N3CCOCC3)cc2)n1)C(=O)C(N)=O (stereo not shown) [Example 33, N-{1-[Amino(oxo)acetyl]pentyl}-2-[3-(4-morpholin-4-ylphenyl)-1H-pyrazol-1-yl]nicotinamide] | + (+ means 10≦Ki(cathepsin B)/Ki(calpain)<30) | + (+ means 50≦Ki(cathepsin S)/Ki(calpain)<100) | 
NC(=O)C(=O)C(Cc1cccs1)NC(=O)c1cccnc1-n1ccc(-c2ccccc2)n1 (stereo not shown) [Example 40, N-[3-Amino-2,3-dioxo-1-(2-thienylmethyl)propyl]-2-(3-phenyl-1H-pyrazol-1-yl)pyridine-3-carboxamide] | + (+ means 10≦Ki(cathepsin B)/Ki(calpain)<30) | ++ (++ means a Ki(cathepsin S)/Ki(calpain) ratio of ≧100) | ++ (++ means a Ki(cathepsin L)/Ki(calpain) ratio of ≧50)
Cc1cc(-c2ccccc2)nn1-c1ncccc1C(=O)NC(Cc1ccccc1)C(=O)C(N)=O (stereo not shown) [Example 61, N-(3-Amino-1-benzyl-2,3-dioxopropyl)-2-(5-methyl-3-phenyl-1H-pyrazol-1-yl)nicotinamide] | + (+ means 10≦Ki(cathepsin B)/Ki(calpain)<30) | ++ (++ means a Ki(cathepsin S)/Ki(calpain) ratio of ≧100) | 
NC(=O)C(=O)C(Cc1ccccc1)NC(=O)c1cccnc1-n1ccc(-c2ccc(N3CCCCC3)cc2)n1 (stereo not shown) [Example 64, N-(3-Amino-1-benzyl-2,3-dioxopropyl)-2-[3-(4-piperidin-1-ylphenyl)-1H-pyrazol-1-yl]nicotinamide] | + (+ means 10≦Ki(cathepsin B)/Ki(calpain)<30) | ++ (++ means a Ki(cathepsin S)/Ki(calpain) ratio of ≧100) | 
Cc1cn(-c2ncccc2C(=O)NC(Cc2ccccc2)C(=O)C(N)=O)nc1-c1ccccc1 (stereo not shown) [Example 84, N-(3-Amino-1-benzyl-2,3-dioxopropyl)-2-(4-methyl-3-phenyl-1H-pyrazol-1-yl)nicotinamide] | + (+ means 10≦Ki(cathepsin B)/Ki(calpain)<30) | ++ (++ means a Ki(cathepsin S)/Ki(calpain) ratio of ≧100) | ++ (++ means a Ki(cathepsin L)/Ki(calpain) ratio of ≧50)
NC(=O)C(=O)C(Cc1ccc(Br)cc1)NC(=O)c1cccnc1-n1ccc(-c2ccccc2)n1 (stereo not shown) [Example 122, N-{3-Amino-1-[(4-bromophenyl)methyl]-2,3-dioxopropyl}-2-(3-phenyl-1H-pyrazol-1-yl)pyridine-3-carboxamide] | ++ (++ means a Ki(cathepsin B)/Ki(calpain) ratio of ≧30) | ++ (++ means a Ki(cathepsin S)/Ki(calpain) ratio of ≧100) | ++ (++ means a Ki(cathepsin L)/Ki(calpain) ratio of ≧50)
CC(C)c1ccc2c(c1)-c1nn(-c3ncccc3C(=O)NC(Cc3ccccc3)C(=O)C(N)=O)cc1CO2 (stereo not shown) [Example 144, N-[3-Amino-2,3-dioxo-1-(phenylmethyl)propyl]-2-[8-(1-methylethyl)chromeno[4,3-c]pyrazol-2(4H)-yl]pyridine-3-carboxamide] | + (+ means 10≦Ki(cathepsin B)/Ki(calpain)<30) | ++ (++ means a Ki(cathepsin S)/Ki(calpain) ratio of ≧100) | ++ (++ means a Ki(cathepsin L)/Ki(calpain) ratio of ≧50)
NC(=O)C(=O)C(Cc1ccccc1)NC(=O)c1cccnc1-n1ccc(-c2cccc3cnccc23)n1 (stereo not shown) [Example 156, N-[3-Amino-2,3-dioxo-1-(phenylmethyl)propyl]-2-(3-isoquinolin-5-yl-1H-pyrazol-1-yl)pyridine-3-carboxamide] | + (+ means 10≦Ki(cathepsin B)/Ki(calpain)<30) | ++ (++ means a Ki(cathepsin S)/Ki(calpain) ratio of ≧100) | + (+ means 30≦Ki(cathepsin L)/Ki(calpain)<50)
CS(=O)(=O)NCc1cn(-c2ncccc2C(=O)NC(Cc2ccccc2)C(=O)C(N)=O)nc1-c1ccc(F)cc1 (stereo not shown) [Example 187, N-[3-Amino-2,3-dioxo-1-(phenylmethyl)propyl]-2-[3-(4-fluorophenyl)-4-{[(methylsulfonyl)amino]methyl}-1H-pyrazol-1-yl]pyridine-3-carboxamide] |  | ++ (++ means a Ki(cathepsin S)/Ki(calpain) ratio of ≧100) | + (+ means 30≦Ki(cathepsin L)/Ki(calpain)<50)
N-{3-Amino-1-[(4-fluorophenyl)methyl]-2,3-dioxopropyl}-2-[3-(2,3-dichlorophenyl)-1H-pyrazol-1-yl]pyridine-3-carboxamide [Example 161] | + (+ means 10≦Ki(cathepsin B)/Ki(calpain)<30) | ++ (++ means a Ki(cathepsin S)/Ki(calpain) ratio of ≧100) | + (+ means 30≦Ki(cathepsin L)/Ki(calpain)<50)

Source: patent publication US7799809B2, “Carboxamide compounds and their use as calpain inhibitors” (Abbott GmbH & Co. KG, priority 2006, dated 2010)
